For one data set, the system named is phosphorylated ERK1/2 (pERK) in MKN1 cells. The experiment in a line: cells. Type of data set: cell-based. The following applies: Homo sapiens, MKN-1, read-out: MKN1 Cell IC50.
T1 sequence (P00533 25-1210): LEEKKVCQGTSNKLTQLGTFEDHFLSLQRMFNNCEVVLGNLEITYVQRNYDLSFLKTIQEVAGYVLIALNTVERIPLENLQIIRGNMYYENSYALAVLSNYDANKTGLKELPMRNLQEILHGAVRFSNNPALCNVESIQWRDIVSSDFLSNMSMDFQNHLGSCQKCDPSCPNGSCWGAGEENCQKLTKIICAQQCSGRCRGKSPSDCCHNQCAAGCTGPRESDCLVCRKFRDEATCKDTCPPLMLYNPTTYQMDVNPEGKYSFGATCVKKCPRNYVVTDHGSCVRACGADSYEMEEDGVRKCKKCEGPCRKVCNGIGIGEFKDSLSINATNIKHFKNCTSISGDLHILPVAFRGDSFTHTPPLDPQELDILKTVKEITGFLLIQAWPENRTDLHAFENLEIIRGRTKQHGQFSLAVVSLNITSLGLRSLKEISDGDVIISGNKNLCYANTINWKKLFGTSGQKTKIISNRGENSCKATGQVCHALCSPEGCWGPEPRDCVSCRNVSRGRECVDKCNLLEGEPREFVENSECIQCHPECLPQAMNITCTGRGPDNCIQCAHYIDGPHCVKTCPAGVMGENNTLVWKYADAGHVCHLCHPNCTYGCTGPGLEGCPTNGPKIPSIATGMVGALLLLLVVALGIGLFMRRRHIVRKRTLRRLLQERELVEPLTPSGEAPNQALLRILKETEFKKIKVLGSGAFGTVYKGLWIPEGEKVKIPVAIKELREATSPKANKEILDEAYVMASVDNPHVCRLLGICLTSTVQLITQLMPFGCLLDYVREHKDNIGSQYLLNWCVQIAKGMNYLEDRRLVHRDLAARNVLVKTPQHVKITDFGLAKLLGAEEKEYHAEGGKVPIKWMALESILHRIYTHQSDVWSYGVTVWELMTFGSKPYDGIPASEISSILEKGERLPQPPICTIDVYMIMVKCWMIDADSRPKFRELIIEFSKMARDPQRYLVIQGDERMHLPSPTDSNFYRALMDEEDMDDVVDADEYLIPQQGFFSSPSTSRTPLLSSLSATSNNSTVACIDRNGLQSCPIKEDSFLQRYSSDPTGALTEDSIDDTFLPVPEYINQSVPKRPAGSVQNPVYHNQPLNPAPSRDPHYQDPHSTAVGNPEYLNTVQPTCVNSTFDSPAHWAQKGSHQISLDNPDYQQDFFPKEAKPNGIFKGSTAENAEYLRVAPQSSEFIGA
Broadly, the IC50 is the point on the concentration scale where inhibition reaches its midpoint. In the case of `Cc1nn(C)cc1[C@@H](C)Nc1nnc(C)c2cnc(N3CCOCC3)cc12` [Compound 29], the IC50 worked out at 3280 nM.
Regarding `Cc1nnc(N[C@H](C)c2cccc(C(F)(F)F)n2)c2cc(N3CCOCC3)ncc12` [Compound 26], the IC50 came to 185 nM.
As to `Cc1c([C@@H](C)Nc2nnc(C)c3ccc(C4CCNCC4)cc23)cccc1C(F)(F)F` [Compound 16], the IC50 was 183 nM.
As to `Cc1c(C#N)cccc1[C@@H](C)Nc1nnc(C)c2cc(Cl)c(N3CCOCC3)cc12` [Compound 36], the IC50 is 286 nM.
For the compound `Cc1c([C@@H](C)Nc2nn(C)c(=O)c3ccc(N4CCNCC4)cc23)cccc1C(F)(F)F` [Compound 22], the IC50 was 881 nM.
As to `Cc1c(Br)cccc1[C@@H](C)Nc1nnc(C)c2cnc(N3CCOCC3)cc12` [Compound 31], the IC50 worked out at 114 nM.
With `COc1cc2cnnc(N[C@H](C)c3cccc(C(F)(F)F)c3)c2cc1OC` [Compound 8], the IC50 amounted to 958 nM.
Regarding `Cc1nnc(N[C@H](C)c2cn(C)nc2C(F)(F)F)c2cc(N3CCOCC3)ncc12` [Compound 30], the IC50 amounted to 1150 nM.
Take `Cc1c([C@@H](C)Nc2n[nH]c(=O)c3ccc(N4CCNCC4)cc23)cccc1C(F)(F)F` [Compound 21]: the IC50 amounted to 114 nM.

The data set is the same for the next values; noted with them: Homo sapiens, MKN-1; In-Cell Western Assay measuring pERK; read-out: MKN1 Cell IC50.
In the case of `COc1nnc(N[C@H](C)c2cccc(C(F)(F)F)c2C)c2cc(N3CCNCC3)ccc12` [Compound 19], the IC50 was over 10000 nM.
Consider `Cc1c([C@@H](C)Nc2nnc(C)c3cnc(N4CCOCC4)cc23)cccc1C(F)(F)F` [Compound 24], for which the IC50 stood at 26 nM.
For `Cc1c(C#N)cccc1[C@@H](C)Nc1nnc(C)c2cc(C#N)c(N3CCOCC3)cc12` [Compound 37], the IC50 is 490 nM.
With `Cc1c(C#N)cccc1[C@@H](C)Nc1nnc(C)c2cc(F)c(N3CCOCC3)cc12` [Compound 35], the IC50 turned out to be 120 nM.
Same read-out and setting: in the case of `COc1cc2cnnc(N[C@H](C)c3cccc4ccccc34)c2cc1OC` [Compound 7] it was over 10000 nM; in that of `Cc1c([C@@H](C)Nc2nnc(C(F)(F)F)c3ccc(N4CCNCC4)cc23)cccc1C(F)(F)F` [Compound 18], over 10000 nM.
`COc1cc2cnnc(N[C@H](C)c3ccccc3)c2cc1OC` [Compound 6]: the IC50 was over 10000 nM.
The same measure, in the same setting: in the case of `COc1cc2cnnc(N[C@H](C)c3ccccc3C)c2cc1OC` [Compound 9] it was over 10000 nM.

Another data set concerns the target T1, human EGFR (Homo sapiens, UniProt P00533).
T1 construct: purchased Reaction Biology
Experiment: not given
It is filed as biochemical.
Conditions: not given
For `CNCc1ccccc1-c1csc([C@@H](C)Nc2nncc3cc(OC)c(OC)cc23)c1` [Compound 11], the IC50 was over 10000 nM.

Staying with this data set, now noted: 10 μM ATP.
On to `COc1cc2cnnc(N[C@H](C)c3cccc4ccccc34)c2cc1OC` [Compound 7], for which the concentration for half-maximal inhibition (IC50) was over 10000 nM.
Consider `COc1cc2cnnc(N[C@H](C)c3cccc(C(F)(F)F)c3C)c2cc1OC` [Compound 10], for which the IC50 is over 10000 nM.
In turn, `COc1cc2cnnc(N[C@H](C)c3ccccc3)c2cc1OC` [Compound 6] gave an IC50 of over 10000 nM.
As for `COc1cc2cnnc(N[C@H](C)c3ccccc3C)c2cc1OC` [Compound 9], the 50% inhibitory concentration (IC50) is over 10000 nM.
In turn, `COc1cc2cnnc(N[C@H](C)c3cccc(C(F)(F)F)c3)c2cc1OC` [Compound 8] displayed a concentration for half-maximal inhibition (IC50) of over 10000 nM.

Tested on in another data set: not listed separately
Kind of data set: Human liver microsome intrinsic clearance. The following applies: human liver microsomes. It is filed as in vitro ADME.
The CLint scaled is the capacity of the preparation to metabolise the compound, expressed as a volume cleared per time. For `Cc1ncccc1[C@@H](C)Nc1nnc(C)c2cnc(N3CCOCC3)cc12` [Compound 28], the intrinsic clearance (CLint scaled) was 21 mL/min/kg.
Compound `Cc1nn(C)cc1[C@@H](C)Nc1nnc(C)c2cnc(N3CCOCC3)cc12` [Compound 29] gave a CLint scaled of 15 mL/min/kg.
`Cc1c([C@@H](C)Nc2nnc(C)c3cnc(N4CCOCC4)cc23)cccc1C(F)(F)F` [Compound 24] yielded a CLint scaled of 114 mL/min/kg.
Take `Cc1nnc(N[C@H](C)c2cccc(C(F)(F)F)n2)c2cc(N3CCOCC3)ncc12` [Compound 26]: the CLint scaled was 206 mL/min/kg.
`Cc1nnc(N[C@H](C)c2cc(N)cc(C(F)(F)F)n2)c2cc(N3CCOCC3)ncc12` [Compound 27] yielded a CLint scaled of 18 mL/min/kg.
Consider `Cc1nnc(N[C@H](C)c2cccc(C#N)c2)c2cc(N3CCOCC3)ncc12` [Compound 34], for which the CLint scaled amounted to 505 mL/min/kg.
Same read-out and setting: in the case of `Cc1nnc(N[C@H](C)c2cccc(C(F)(F)F)c2F)c2cc(N3CCOCC3)ncc12` [Compound 25] it was 214 mL/min/kg; in that of `Cc1c(Br)cccc1[C@@H](C)Nc1nnc(C)c2cnc(N3CCOCC3)cc12` [Compound 31], 396 mL/min/kg.
`Cc1c([C@@H](C)Nc2nnc(C)c3cnc(N4CCNCC4)cc23)cccc1C(F)(F)F` [Compound 23] showed a CLint scaled of 27 mL/min/kg.
The compound `Cc1nnc(N[C@H](C)c2cn(C)nc2C(F)(F)F)c2cc(N3CCOCC3)ncc12` [Compound 30] had a CLint scaled of 37 mL/min/kg.
In turn, `Cc1c([C@@H](C)Nc2nnc(C)c3cnc(N4CCOCC4)cc23)cccc1S(C)(=O)=O` [Compound 33] registered a CLint scaled of 7.9 mL/min/kg.

Tested on in the next data set: not given
Experiment: not given
The following applies: PO CD-1 mice, 100 mg/kg, 0.5% MC (4000 cps)/0.2% Tween80 in water.
Take `Cc1c([C@@H](C)Nc2nnc(C)c3cnc(N4CCOCC4)cc23)cccc1C(F)(F)F` [Compound 24]: the “mPK PO Dosing %F” value is reported as about 100% and the “mPK PO Dosing AUC0-last” value is 130318 ng·h/mL.

The same data set, now with this note: mouse, IV 3 mg/kg.
With `Cc1c([C@@H](C)Nc2nnc(C)c3cnc(N4CCNCC4)cc23)cccc1C(F)(F)F` [Compound 23], the Eh was 0.58.

Tested on in another data set: not listed separately
The experiment in a line: in vivo. The settings on record: CD-1, mouse, iv, 3 mg/kg, pH 5.
As usually defined, the clearance is a measure of how efficiently the substance is removed, as volume per time. Higher therefore signals a high capacity for elimination. `Cc1c([C@@H](C)Nc2nnc(C)c3cnc(N4CCOCC4)cc23)cccc1C(F)(F)F` [Compound 24] yielded a clearance of 17 mL/min/kg.
`Cc1c([C@@H](C)Nc2nnc(C)c3ccc(N4CCNCC4)cc23)cccc1C(F)(F)F` [Compound 15] gave a clearance of 85 mL/min/kg.
Compound `Cc1c([C@@H](C)Nc2nnc(C)c3cnc(N4CCNCC4)cc23)cccc1C(F)(F)F` [Compound 23] registered a clearance of 52 mL/min/kg.

The data set is the same for the next values; noted with them: CD-1, mouse, po, 100 mg/kg, pH 5.
One may read the AUC(0-t) as the area under the concentration-time curve up to a stated or last time point. Read a low AUC(0-t) as less exposure. Broadly, the bioavailability is dose-corrected exposure relative to a reference, in per cent. Low readings indicate little systemic uptake, high ones much systemic uptake. `Cc1c([C@@H](C)Nc2nnc(C)c3ccc(N4CCNCC4)cc23)cccc1C(F)(F)F` [Compound 15] came in with an exposure AUC(0-t) of 1300 ng·h/mL and a bioavailability of 11%.
For the compound `Cc1c([C@@H](C)Nc2nnc(C)c3cnc(N4CCNCC4)cc23)cccc1C(F)(F)F` [Compound 23], the exposure AUC(0-t) is 9970 ng·h/mL and the bioavailability is 44%.

Another data set has as its system MIA PaCa-2 tumor mouse xenograft. The experiment in a line: Antitumor efficacy study in MIA PaCa-2 mouse xenograft. The following applies: single agent MRTX849, 10 mg/kg qd, 25 days.
With `C=C(F)C(=O)N1CCN(c2nc(OC[C@@H]3CCCN3C)nc3c2CCN(c2cccc4cccc(Cl)c24)C3)C[C@@H]1CC#N` [MRTX849, adagrasib, reference compound], the “tumor growth inhibition (TGI)” value turned out to be 94%.

The test system of the next data set is pERK in MIA PaCa-2 tumors. Kind of data set: Tumor pharmacodynamic (pERK) study in MIA PaCa-2 mouse xenograft. The settings on record: 24 at 100 mg/kg bid PO, 21 days, 3 h after last dose.
Take `Cc1c([C@@H](C)Nc2nnc(C)c3cnc(N4CCOCC4)cc23)cccc1C(F)(F)F` [Compound 24]: the “tumor pERK modulation, single agent” value is reported as “No modulation”.

The data set is the same for the next values; noted with them: 24 at 100 mg/kg bid in combination with MRTX849 10 mg/kg qd, PO, 21 days, 3 h after last dose.
As to `Cc1c([C@@H](C)Nc2nnc(C)c3cnc(N4CCOCC4)cc23)cccc1C(F)(F)F` [Compound 24], the “reduction in tumor pERK, combination” value is on record as 69%.

The data set is the same for the next values; noted with them: MRTX849 at 10 mg/kg qd PO, 21 days.
For `C=C(F)C(=O)N1CCN(c2nc(OC[C@@H]3CCCN3C)nc3c2CCN(c2cccc4cccc(Cl)c24)C3)C[C@@H]1CC#N` [MRTX849, adagrasib, reference compound], the “tumor pERK modulation, single agent” value is reported as “No modulation”.

Still in this data set, the particulars now being: MRTX849 dosed in combination with MRTX0902.
As for `C=C(F)C(=O)N1CCN(c2nc(OC[C@@H]3CCCN3C)nc3c2CCN(c2cccc4cccc(Cl)c24)C3)C[C@@H]1CC#N` [MRTX849, adagrasib, reference compound], the “plasma concentration of MRTX849” value is “remained unchanged”.
